Source: patent publication US6723716B1, “7-acylamino-3-heteroarylthio-3-cephem carboxylic acid antibiotics and prodrugs thereof” (Essential Therapeutics, Inc., priority 1999, dated 2004)
Converted amounts (≈) assume the structure as drawn.

Assays:
S. aureus ATCC29213 = assay: Human serum binding effect: MIC with and without human serum; assay type: cell-based, Staphylococcus aureus; conditions: 1:1 human serum:MHB
Method: The approximate measurement of the degree of binding of the compound to human serum proteins can be achieved by determination of the effect of the addition of human serum to the medium in which the MIC values against a selected bacterial strain is determined. The ratio of the MIC value obtained in presence of added human serum to the MIC value determined without serum addition was used as a measure of serum binding and the results of such determination are presented below in Table 2.
In addition to the standard MIC determination described above, the staphylococcal strain ATCC29213 is also tested in a ratio 1:1, human serum:MHB to obtain a preliminary estimate of the bioactivity of test compounds in serum: The assay was performed in Human Serum and Mueller-Hinton Broth (HSMHB) with a final bacterial inoculum of 1×10^6 CFU/mL (from an early-log phase culture) and a final volume of 100 μL. Control drugs, including imipenem, vancomycin, dicloxacillin, and new compounds were prepared in double-concentrated Mueller-Hinton broth at a concentration equivalent to 4-fold the desired final concentration. Dilution of compounds were prepared directly in the plates by serial 2-fold dilution in double-concentrated Mueller-Hinton using a multichannel pipette. Positive and negative growth controls were included in each plate. […] The inoculum was prepared by diluting the early log-phase (1 h) culture 1:100 with fresh double-concentrated Mueller-Hinton broth. A volume of 25 μL of the inoculum was added to each well. […] The exact inoculum was determined by applying 10 μl of 10-fold serial dilution of the bacterial suspension on TSA. After overnight incubation at 35° C., colony forming units were manually counted.

[1] = test system: S. aureus 76 (Meth^R)(lac^+); assay: Broth microdilution MIC (NCCLS); assay type: cell-based; conditions: Staphylococcus aureus
Method: (§1) Compounds were evaluated for antimicrobial activity against a panel of bacterial strains using a broth microdilution assay performed as recommended by the NCCLS (1). The minimum inhibitory concentration (MIC) was defined as the lowest concentration of drug which prevented the growth of the bacteria.
(§2) For this primary panel, the assay was performed in Mueller-Hinton Broth (MHB) with a final bacterial inoculum of 5×10^5 CFU/mL (from an early-log phase culture) and a final volume of 100 μL. Control drugs, including imipenem, vancomycin, Penicillin G, dicloxacillin (vs. MSSA ATCC29213 only), and new compounds were prepared at a concentration equivalent to 2-fold the desired final concentration. Dilution of compounds were prepared directly in the plates by serial 2-fold dilution using a multichannel pipette. Positive and negative growth control were included in each plate.
(§3) The bacterial inocula were prepared as follows. For each strain one isolated colony was used to inoculate a volume of 8 mL of Mueller-Hinton broth and these cultures were incubated overnight (20 h) at 35° C. in a shaking incubator. At the exception of Enterococcus strains, culture were then diluted 1:10 and allowed to grow for an additional one hour at 35° C. in a shaking incubator. The inocula were prepared by diluting the early log-phase (1 h) cultures 1:1000 with fresh Mueller-Hinton broth. E. faecium and E. faecalis were prepared by diluting overnight cultures 1:333 and 1:666, respectively, with fresh Mueller-Hinton broth. A volume of 50 μL of the inocula was added to each well. […] The exact inocula were determined by applying 10 μL of 10-fold serial dilution of the bacterial suspensions on TSA. After overnight incubation at 35° C., colony forming units were manually counted.
(§4) Microtiter plates were incubated during 24 h at 35° C. and were read using a microtiterplate reader (Molecular Devices) at 650 nm as well as by visual observation using a microtiterplate reading mirror.

E. faecium ATCC 35667 = assay: Broth microdilution MIC (NCCLS); assay type: cell-based; conditions: Enterococcus faecium, ATCC35667
Method: as §1, §2, §3, §4

P. aeruginosa ATCC 27853 = assay: Broth microdilution MIC (NCCLS); assay type: cell-based; conditions: Pseudomonas aeruginosa, ATCC27853
Method: as §1, §2, §3, §4

E. faecalis VanB (Van^R) = assay: Broth microdilution MIC (NCCLS); assay type: cell-based; conditions: Enterococcus faecalis
Method: as §1, §2, §3, §4

[2] = test system: S. aureus PC1 (Meth^S)(lac^+); assay: Broth microdilution MIC (NCCLS); assay type: cell-based; conditions: Staphylococcus aureus
Method: as §1, §2, §3, §4

S. aureus ATCC 29213 = assay: Broth microdilution MIC (NCCLS); assay type: cell-based; conditions: Staphylococcus aureus, ATCC29213; S. aureus ATCC 29213; Mueller-Hinton broth, 24 h at 35° C.; read-out: MIC
Method: as §1, §2, §3, §4

[3] = test system: S. haemolyticus 05 (Meth^R); assay: Broth microdilution MIC (NCCLS); assay type: cell-based; conditions: Staphylococcus haemolyticus
Method: as §1, §2, §3, §4

[4] = test system: S. aureus Spain #356 (Meth^R); assay: Broth microdilution MIC (NCCLS); assay type: cell-based; conditions: Staphylococcus aureus, 24 h
Method: as §1, §2, §3, §4

[5] = test system: S. aureus ATCC 13709 (Meth^S); assay: Broth microdilution MIC (NCCLS); assay type: cell-based; conditions: Staphylococcus aureus, ATCC13709, S. aureus ATCC 13709 (Meth^S); read-out: MIC
Method: as §1, §2, §3, §4

[6] = test system: S. aureus ATCC 33593 (Meth^R); assay: Broth microdilution MIC (NCCLS); assay type: cell-based; conditions: Staphylococcus aureus, ATCC33593
Method: as §1, §2, §3, §4

E. faecalis ATCC 29212 = assay: Broth microdilution MIC (NCCLS); assay type: cell-based; conditions: Enterococcus faecalis, ATCC29212
Method: as §1, §2, §3, §4

[7] = test system: S. aureus Col (Meth^R)(lac^−); assay: Broth microdilution MIC (NCCLS); assay type: cell-based; conditions: Staphylococcus aureus
Method: as §1, §2, §3, §4

E. faecium VanA (Van^R) = assay: Broth microdilution MIC (NCCLS); assay type: cell-based; conditions: Enterococcus faecium
Method: as §1, §2, §3, §4

E. coli ATCC25992 = assay: Broth microdilution MIC (NCCLS); assay type: cell-based; conditions: Escherichia coli
Method: as §1, §2, §3, §4

E. faecium A491 (Amp^R) = assay: Broth microdilution MIC (NCCLS); assay type: cell-based; conditions: Enterococcus faecium
Method: as §1, §2, §3, §4

| Structure (SMILES) | Human serum binding effect (ratio of MIC value determined with and without human serum added) (S. aureus ATCC29213) | MIC [1] [µg/mL] | MIC (E. faecium ATCC 35667) [µg/mL] | MIC (P. aeruginosa ATCC 27853) [µg/mL] | MIC (E. faecalis VanB (Van^R)) [µg/mL] | MIC [2] [µg/mL] | MIC (S. aureus ATCC 29213) [µg/mL] | MIC [3] [µg/mL] | MIC [4] [µg/mL] | MIC [5] [µg/mL] | MIC [6] [µg/mL] | MIC (E. faecalis ATCC 29212) [µg/mL] | MIC [7] [µg/mL] | MIC (E. faecium VanA (Van^R)) [µg/mL] | MIC (E. coli ATCC25992) [µg/mL] | MIC (E. faecium A491 (Amp^R)) [µg/mL] |
| --- | --- | --- | --- | --- | --- | --- | --- | --- | --- | --- | --- | --- | --- | --- | --- | --- |
| COc1nc(CSCCN)c(SC2=C(C(=O)O)N3C(=O)[C@@H](NC(=O)/C(=N\O)c4cccc(N)n4)[C@H]3SC2)s1 [Cmpd 5, (7R)-7-[(Z)-2-(2-aminopyrid-6-yl)-2-(hydroxyimino)acetamido]-3-[4-(2-aminoethylthiomethyl)-2-methoxy-1,3-thiazol-5-ylthio]-3-cephem-4-carboxylic acid] | 4 | 4 (≈ 6.69 µM) | 4 (≈ 6.69 µM) | > 32 | 1 (≈ 1.67 µM) | 0.25 (≈ 0.418 µM) | 0.25 (≈ 0.418 µM) | 8 (≈ 13.4 µM) | 4 (≈ 6.69 µM) | 0.13 (≈ 0.217 µM) | 4 (≈ 6.69 µM) | 0.5 (≈ 0.837 µM) | 4 (≈ 6.69 µM) | 4 (≈ 6.69 µM) | 32 (≈ 53.5 µM) | > 32 |
| NCCSc1cncc(SC2=C(C(=O)O)N3C(=O)C(NC(=O)/C(=N\O)c4cccc(N)n4)C3SC2)n1 (stereo not shown) [Cmpd 6] | 128 | 16 (≈ 29.2 µM) | 8 (≈ 14.6 µM) | > 32 | 4 (≈ 7.29 µM) | 0.5 (≈ 0.911 µM) | 0.5 (≈ 0.911 µM) | 32 (≈ 58.3 µM) | 16 (≈ 29.2 µM) | 0.25 (≈ 0.456 µM) | 8 (≈ 14.6 µM) | 2 (≈ 3.65 µM) | 16 (≈ 29.2 µM) | 8 (≈ 14.6 µM) | 16 (≈ 29.2 µM) | > 32 |
| NCCSc1nccc(SC2=C(C(=O)O)N3C(=O)[C@@H](NC(=O)/C(=N\O)c4cccc(N)n4)[C@H]3SC2)n1 [Cmpd 8, (7R)-7-[(Z)-2-(2-aminopyrid-6-yl)-2-(hydroxyimino)acetamido]-3-[2-(2-aminoethylthio)-pyrimidin-4-ylthio]-3-cephem-4-carboxylic acid] | 128 | 16 (≈ 29.2 µM) | 16 (≈ 29.2 µM) | > 32 | 16 (≈ 29.2 µM) | 1 (≈ 1.82 µM) | 1 (≈ 1.82 µM) | 32 (≈ 58.3 µM) | 16 (≈ 29.2 µM) | 0.5 (≈ 0.911 µM) | 8 (≈ 14.6 µM) | 8 (≈ 14.6 µM) | 16 (≈ 29.2 µM) | 32 (≈ 58.3 µM) | 16 (≈ 29.2 µM) | > 32 |
| N=C(N)NCCSCc1nc(N)sc1SC1=C(C(=O)O)N2C(=O)[C@@H](NC(=O)/C(=N\O)c3nc(N)sc3Cl)[C@H]2SC1 [Cmpd 26, (7R)-7-[(Z)-2-(2-amino-5-chlorothiazol-4-yl)-2-(hydroxyimino)acetamido]-3-[4-(2-guanidinoethylthiomethyl)-2-amino-1,3-thiazol-5-ylthio]-3-cephem-4-carboxylic acid] | 2 | 0.5 (≈ 0.752 µM) | 0.5 (≈ 0.752 µM) | 4 (≈ 6.01 µM) | 0.06 (≈ 0.0902 µM) | 0.06 (≈ 0.0902 µM) | 0.06 (≈ 0.0902 µM) | 0.5 (≈ 0.752 µM) | 0.5 (≈ 0.752 µM) | 0.06 (≈ 0.0902 µM) | 0.5 (≈ 0.752 µM) | 0.06 (≈ 0.0902 µM) | 0.25 (≈ 0.376 µM) | 1 (≈ 1.5 µM) | 4 (≈ 6.01 µM) | 16 (≈ 24.1 µM) |
